These results are taken from ChEMBL document CHEMBL4028830, “Novel pyrazoles and pyrazolo[1,2-a]pyridazines as selective COX-2 inhibitors; Ultrasound-assisted synthesis, biological evaluation, and DFT calculations” (Bioorg Med Chem Lett, 2017).

The structures appear in SMILES notation.

Assay [1] has as its system Rattus norvegicus. The assay is described as follows: Anti-inflammatory activity against carrageenan-induced paw oedema in rat assessed as paw thickness at 100 mg/kg measured immediately (reference value: 0.98 +/- 0.03 cm). The assay is classed as functional. Background: In the carrageenan paw model, swelling and tenderness develop within hours.
Assay [2] deals with Rattus norvegicus. The assay is described as follows: Analgesic activity in albino rat model of thermal-induced nociception assessed as tail withdrawal latency time at 100 mg/kg, po measured at 60 mins post dose by tail immersion test (reference value: 2.62 +/- 0.11 min). In kind it is functional.
In assay [3] the test system is Rattus norvegicus. In words: Analgesic activity in albino rat model of thermal-induced nociception assessed as tail withdrawal latency time at 100 mg/kg, po measured at 180 mins post dose by tail immersion test (reference value: 2.62 +/- 0.13 min). The assay is classed as functional.
A further assay is filed under the species Homo sapiens. The assay is described as follows: Selectivity index, ratio of IC50 for COX1 (unknown origin) to IC50 for COX2 (unknown origin).
Assay [4] addresses Prostaglandin G/H synthase 1 (Homo sapiens, UniProt P23219). In words: Inhibition of COX1 (unknown origin) using arachidonic acid as substrate pretreated for 10 mins followed by substrate addition measured after 2 mins by enzyme-immunoassay.
The test system of assay [5] is Rattus norvegicus. The assay is described as follows: Analgesic activity in albino rat model of thermal-induced nociception assessed as tail withdrawal latency time at 100 mg/kg, po measured at 120 mins post dose by tail immersion test (reference value: 2.63 +/- 0.15 min). In kind it is functional.
The target of assay [6] is T1, Prostaglandin G/H synthase 2 (Homo sapiens, UniProt P35354).
T1 sequence (P35354 whole entry): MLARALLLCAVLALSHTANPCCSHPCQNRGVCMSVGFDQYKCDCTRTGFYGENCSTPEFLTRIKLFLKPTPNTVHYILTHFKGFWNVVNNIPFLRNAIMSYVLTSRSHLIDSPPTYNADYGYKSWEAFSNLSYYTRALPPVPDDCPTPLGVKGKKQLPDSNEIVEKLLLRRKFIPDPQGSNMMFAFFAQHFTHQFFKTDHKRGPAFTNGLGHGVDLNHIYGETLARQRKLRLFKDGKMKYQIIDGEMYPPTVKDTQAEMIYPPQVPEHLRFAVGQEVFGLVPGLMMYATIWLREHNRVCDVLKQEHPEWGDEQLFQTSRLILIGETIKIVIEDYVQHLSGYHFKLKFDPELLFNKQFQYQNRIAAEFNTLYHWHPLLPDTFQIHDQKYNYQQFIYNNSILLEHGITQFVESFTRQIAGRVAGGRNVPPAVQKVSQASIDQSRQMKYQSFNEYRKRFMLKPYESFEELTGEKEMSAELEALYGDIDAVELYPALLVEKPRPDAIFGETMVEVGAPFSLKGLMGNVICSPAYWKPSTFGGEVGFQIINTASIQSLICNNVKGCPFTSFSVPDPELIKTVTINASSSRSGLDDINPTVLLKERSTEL
The assay is described as follows: Inhibition of COX2 (unknown origin) using arachidonic acid as substrate pretreated for 10 mins followed by substrate addition measured after 2 mins by enzyme-immunoassay.

Assay [7] has as its system Rattus norvegicus. The assay is described as follows: Anti-inflammatory activity against carrageenan-induced paw oedema in albino rat assessed as paw thickness at 100 mg/kg measured at 3 hrs post dose (reference value: 0.93 +/- 0.02 cm). In kind it is functional.
The test system of assay [8] is Rattus norvegicus. In words: Analgesic activity in albino rat model of thermal-induced nociception assessed as tail withdrawal latency time at 100 mg/kg, po measured at 240 mins post dose by tail immersion test (reference value: 2.62 +/- 0.13 min). The assay is classed as functional.
Assay [9] deals with Rattus norvegicus. The assay is described as follows: Analgesic activity in albino rat model of thermal-induced nociception assessed as tail withdrawal latency time at 100 mg/kg, po measured at 300 mins post dose by tail immersion test (reference value: 2.58 +/- 0.11 min). In kind it is functional.
The test system of assay [10] is Rattus norvegicus. In words: Analgesic activity in albino rat model of thermal-induced nociception assessed as tail withdrawal latency time at 100 mg/kg, po measured immediately by tail immersion test (reference value: 2.60 +/- 0.14 min). The assay is classed as functional.
The subject of assay [11] is Rattus norvegicus. The assay is described as follows: Anti-inflammatory activity against carrageenan-induced paw oedema in albino rat assessed as paw thickness at 100 mg/kg measured at 6 hrs post dose (reference value: 0.92 +/- 0.03 cm). In kind it is functional.

Prostaglandin G/H synthase 1, sequence (P23219 whole entry): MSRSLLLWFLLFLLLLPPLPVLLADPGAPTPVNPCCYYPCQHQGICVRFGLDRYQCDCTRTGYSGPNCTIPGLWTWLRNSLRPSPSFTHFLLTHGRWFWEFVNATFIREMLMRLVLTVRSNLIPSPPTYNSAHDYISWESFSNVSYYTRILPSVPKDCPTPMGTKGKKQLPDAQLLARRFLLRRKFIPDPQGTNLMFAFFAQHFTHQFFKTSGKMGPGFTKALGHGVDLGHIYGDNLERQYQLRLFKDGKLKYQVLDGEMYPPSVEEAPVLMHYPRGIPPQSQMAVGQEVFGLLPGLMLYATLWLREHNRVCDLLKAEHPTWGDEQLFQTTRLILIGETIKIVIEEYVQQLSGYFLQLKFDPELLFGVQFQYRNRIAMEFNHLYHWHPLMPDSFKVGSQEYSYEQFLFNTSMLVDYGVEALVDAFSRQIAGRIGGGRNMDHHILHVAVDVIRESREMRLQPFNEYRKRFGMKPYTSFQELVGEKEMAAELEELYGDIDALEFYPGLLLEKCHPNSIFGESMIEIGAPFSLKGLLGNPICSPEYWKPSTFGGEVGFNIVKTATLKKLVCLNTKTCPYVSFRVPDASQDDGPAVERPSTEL

Usually IC50 stands for the point on the concentration scale where inhibition reaches its midpoint. On to `O=C(NN1C(=O)c2ccccc2C1=O)c1ccccc1O`, for which the Activity with Rattus norvegicus [1] is recorded as 0.98 cm; in the assay with Rattus norvegicus [7], 0.73 cm; with Rattus norvegicus [11] it was 0.72 cm. Also, the Time in the assay with Rattus norvegicus [2] is 5.58 min; in the assay with Rattus norvegicus [3], 6.25 min; in the assay on Rattus norvegicus [5], 5.58 min; in the assay with Rattus norvegicus [8], 6.23 min; in the assay on Rattus norvegicus [9], 7.2 min; with Rattus norvegicus [10], 2.55 min. The Selectivity Index in the assay listed under Homo sapiens came out at 0.71. Besides, the figures for the half-inhibitory concentration (IC50) in assay [4] (read-out: IC50) and in assay [6] (read-out: IC50) were 92.2 nM and 130 nM, respectively.
Consider `O=C([O-])Cc1ccccc1Nc1c(Cl)cccc1Cl.[Na+]` [DICLOFENAC SODIUM], for which the Activity is listed as 1.02 cm with Rattus norvegicus [1], 0.77 cm in the assay with Rattus norvegicus [7] and 0.63 cm in the assay on Rattus norvegicus [11]. Besides, the Time was 6.44 min in the assay with Rattus norvegicus [2]; 4.87 min in the assay with Rattus norvegicus [3]; 4.98 min in the assay with Rattus norvegicus [5]; 4.21 min in the assay on Rattus norvegicus [8]; 3.99 min in the assay on Rattus norvegicus [9]; 2.63 min in the assay on Rattus norvegicus [10].
In the case of `O=C(c1ccccc1O)n1nc(Nc2ccccc2)cc1-c1ccccc1O`, the results for the Activity in the assay with Rattus norvegicus [1], with Rattus norvegicus [7] and in the assay on Rattus norvegicus [11] were 0.97 cm, 0.63 cm and 0.55 cm, respectively. Moreover, the Time in the assay on Rattus norvegicus [2] stood at 3.95 min; with Rattus norvegicus [3], 4.18 min; in the assay with Rattus norvegicus [5], 4.05 min; in the assay on Rattus norvegicus [8], 4.07 min; with Rattus norvegicus [9], 4.22 min; in the assay with Rattus norvegicus [10] it was 2.47 min. Further, the Selectivity Index in the assay filed under Homo sapiens worked out at 4.35. The half-maximal inhibitory concentration (IC50) in assay [4] (read-out: IC50) was found to be 70.4 nM; in [6] (read-out: IC50) it was 16.2 nM.
On to `CCOC(=O)C1=C(N)N2C(=O)CCC(=O)N2C1c1ccccc1O` (stereo not given), for which the figures for the Activity with Rattus norvegicus [1], in the assay with Rattus norvegicus [7] and with Rattus norvegicus [11] were 1.02 cm, 0.7 cm and 0.65 cm, respectively. In addition, the Time in the assay with Rattus norvegicus [2] came out at 5.53 min; in the assay on Rattus norvegicus [3] it was 6.85 min; with Rattus norvegicus [5], 6.68 min; with Rattus norvegicus [8], 6.33 min; in the assay with Rattus norvegicus [9] it was 5.62 min; in the assay with Rattus norvegicus [10], 2.63 min. Besides, in the assay listed under Homo sapiens, the Selectivity Index amounted to 0.47. The values for the concentration for half-maximal inhibition (IC50) in assay [4] (read-out: IC50) and in [6] (read-out: IC50) were 88.1 nM and 181 nM, respectively.
Take `O=C(NN1C(=O)c2cccnc2C1=O)c1ccccc1O`: the Activity was 0.97 cm with Rattus norvegicus [1], 0.83 cm with Rattus norvegicus [7] and 0.72 cm in the assay with Rattus norvegicus [11]. The Time with Rattus norvegicus [2] worked out at 3.78 min; with Rattus norvegicus [3] it was 4.3 min; in the assay with Rattus norvegicus [5], 3.97 min; in the assay on Rattus norvegicus [8] it was 4.27 min; with Rattus norvegicus [9], 4.17 min; in the assay with Rattus norvegicus [10], 2.57 min. The half-maximal inhibitory concentration (IC50) result in assay [4] and in assay [6] was “Not Active” each time.
On to `Cc1cc(C)n(C(=O)c2ccccc2O)n1`, for which the results for the Activity with Rattus norvegicus [1], in the assay with Rattus norvegicus [7] and with Rattus norvegicus [11] were 0.98 cm, 0.75 cm and 0.67 cm, respectively. Besides, the Time in the assay on Rattus norvegicus [2] was determined as 6.05 min; with Rattus norvegicus [3], 4.83 min; with Rattus norvegicus [5], 5.79 min; in the assay on Rattus norvegicus [8], 5.66 min; in the assay with Rattus norvegicus [9], 4.8 min; in the assay on Rattus norvegicus [10], 2.62 min. Also, the IC50 result in [4] and in [6] was “Not Active” in each case.
With `CCOC(=O)C1=C(N)n2c(=O)c3ccccc3c(=O)n2C1c1ccccc1O` (stereo not given), the Activity with Rattus norvegicus [1] was 0.97 cm; in the assay with Rattus norvegicus [7], 0.72 cm; in the assay on Rattus norvegicus [11], 0.67 cm. In addition, the Time with Rattus norvegicus [2] amounted to 5.53 min; with Rattus norvegicus [3], 6.85 min; with Rattus norvegicus [5], 6.68 min; in the assay on Rattus norvegicus [8], 6.33 min; in the assay with Rattus norvegicus [9], 5.62 min; in the assay with Rattus norvegicus [10], 2.52 min. Besides, the IC50 entry in assay [4] and in assay [6] was “Not Active” in each case.
For the compound `O=C(NN1C(=O)CCC1=O)c1ccccc1O`, the Activity is given as 1 cm with Rattus norvegicus [1], 0.73 cm with Rattus norvegicus [7] and 0.62 cm in the assay on Rattus norvegicus [11]. Further, the Time came out at 5.02 min in the assay on Rattus norvegicus [2]; 4.85 min with Rattus norvegicus [3]; 4.98 min with Rattus norvegicus [5]; 5.28 min with Rattus norvegicus [8]; 5.78 min in the assay on Rattus norvegicus [9]; 2.42 min with Rattus norvegicus [10]. For the same compound, the half-inhibitory concentration (IC50) entry in [4] and in assay [6] was “Not Active” in each case.
In the case of `CCOC(=O)C1=C(N)n2c(=O)c3ncccc3c(=O)n2C1c1ccccc1O` (stereo not given), the Activity in the assay with Rattus norvegicus [1] was found to be 0.98 cm; in the assay on Rattus norvegicus [7] it was 0.68 cm; with Rattus norvegicus [11], 0.62 cm. Further, the Time was 5.83 min in the assay with Rattus norvegicus [2]; 5.75 min in the assay with Rattus norvegicus [3]; 5.53 min with Rattus norvegicus [5]; 5.25 min with Rattus norvegicus [8]; 4.08 min in the assay on Rattus norvegicus [9]; 2.55 min with Rattus norvegicus [10]. In the assay listed under Homo sapiens, the Selectivity Index is 3.32. Moreover, the IC50 was 66.7 nM in assay [4] (read-out: IC50) and 20.1 nM in [6] (read-out: IC50).
Consider `O=C(/C=C/c1ccccc1O)Nc1ccccc1`, for which the figures for the Activity with Rattus norvegicus [1], in the assay on Rattus norvegicus [7] and in the assay on Rattus norvegicus [11] were 1.02 cm, 0.83 cm and 0.65 cm, respectively. The Time in the assay on Rattus norvegicus [2] is given as 3.78 min; in the assay on Rattus norvegicus [3] it was 4.18 min; with Rattus norvegicus [5], 4.12 min; with Rattus norvegicus [8], 3.92 min; in the assay on Rattus norvegicus [9] it was 3.97 min; with Rattus norvegicus [10], 2.63 min.
Consider `CC1=NN(C(=O)c2ccccc2O)C(=O)C1`, for which the Activity in the assay with Rattus norvegicus [1] is 1.02 cm; with Rattus norvegicus [7], 0.77 cm; with Rattus norvegicus [11] it was 0.67 cm. Moreover, the Time came out at 5.52 min in the assay with Rattus norvegicus [2]; 4.7 min in the assay with Rattus norvegicus [3]; 4.78 min with Rattus norvegicus [5]; 4.67 min with Rattus norvegicus [8]; 4.4 min in the assay on Rattus norvegicus [9]; 2.48 min in the assay with Rattus norvegicus [10]. Moreover, the Selectivity Index in the assay filed under Homo sapiens was 0.54. For the same compound, the results for the concentration for half-maximal inhibition (IC50) in assay [4] (read-out: IC50) and in [6] (read-out: IC50) were 82.1 nM and 151 nM, respectively.
In the case of `CCOC(=O)C1=C(N)n2c(=O)ccc(=O)n2C1c1ccccc1O` (stereo not given), the values for the Activity in the assay on Rattus norvegicus [1], with Rattus norvegicus [7] and with Rattus norvegicus [11] were 1.03 cm, 0.82 cm and 0.7 cm, respectively. Also, the Time in the assay with Rattus norvegicus [2] is recorded as 4.33 min; in the assay with Rattus norvegicus [3] it was 4.58 min; in the assay with Rattus norvegicus [5], 4.47 min; with Rattus norvegicus [8], 4.52 min; in the assay on Rattus norvegicus [9], 4.43 min; in the assay with Rattus norvegicus [10], 2.72 min. Further, in the assay listed under Homo sapiens, the Selectivity Index is 0.83. For the same compound, the results for the half-inhibitory concentration (IC50) in [4] (read-out: IC50) and in [6] (read-out: IC50) were 74.4 nM and 90.1 nM, respectively.
For `O=C(NN1C(=O)C=CC1=O)c1ccccc1O`, the Activity came out at 1 cm in the assay with Rattus norvegicus [1], 0.83 cm in the assay on Rattus norvegicus [7] and 0.77 cm with Rattus norvegicus [11]. In addition, the Time is on record as 5.98 min in the assay with Rattus norvegicus [2]; 5.47 min in the assay on Rattus norvegicus [3]; 5.52 min in the assay on Rattus norvegicus [5]; 5.23 min in the assay on Rattus norvegicus [8]; 5.13 min in the assay on Rattus norvegicus [9]; 2.58 min in the assay with Rattus norvegicus [10]. For the same compound, the 50% inhibitory concentration (IC50) result in assay [4] and in assay [6] was “Not Active” in each case.
